# Experimental data as given in ChEMBL document CHEMBL6096701 (J Med Chem, 2025).
# Active and inactive are the calls of the source. The calls are words filed in the database; no cut-off is given here.
# Legend:
# [1] = Upregulation of IL-10 level in human CD4+ T cell by flow cytometry analysis; type: functional, cell-based
# [2] = target: Glycogen synthase kinase-3 alpha (Homo sapiens) (UniProt P49840); test: Binding affinity to GSK3alpha (unknown origin)
# [3] = target: Glycogen synthase kinase-3 beta (Homo sapiens) (UniProt P49841); test: Binding affinity to GSK3beta (unknown origin)
# [4] = target: Cyclin-dependent kinase 2 (Homo sapiens) (UniProt P24941); test: Binding affinity to CDK2 (unknown origin)
# [5] = target: Cyclin-dependent kinase 5 (Homo sapiens) (UniProt Q00535); test: Binding affinity to CDK5 (unknown origin)
# [6] = target: Cyclin-dependent kinase 6 (Homo sapiens) (UniProt Q00534); test: Binding affinity to CDK6 (unknown origin)
# [7] = target: Cyclin-dependent kinase 7 (Homo sapiens) (UniProt P50613); test: Binding affinity to CDK7 (unknown origin)
# [8] = target: Cyclin-dependent kinase 9 (Homo sapiens) (UniProt P50750); test: Binding affinity to CDK9 (unknown origin)
# [9] = target: Cyclin-dependent kinase 10 (Homo sapiens) (UniProt Q15131); test: Binding affinity to CDK10 (unknown origin)
# [10] = target: Serine/threonine-protein kinase SIK1 (Homo sapiens) (UniProt P57059); test: Binding affinity to SIK1 (unknown origin) by FRET biochemical assay
# [11] = target: Serine/threonine-protein kinase SIK2 (Homo sapiens) (UniProt Q9H0K1); test: Binding affinity to SIK2 (unknown origin) by FRET biochemical assay
# [12] = target: Serine/threonine-protein kinase SIK3 (Homo sapiens) (UniProt Q9Y2K2); test: Binding affinity to SIK3 (unknown origin) by FRET biochemical assay
# [13] = target: Cyclin-dependent kinase 8/19 (Homo sapiens, UniProt P49336+Q9BWU1); test: Binding affinity to CDK8/CDK19 complex in human CD4+ T cell assessed as upregulation of IL-10 level; type: cell-based
# [14] = Upregulation of TNF-alpha level in human CD4+ T cell by flow cytometry analysis; type: functional, cell-based
# [15] = Upregulation of IL-10 level in human whole blood cell preincubated for 30 mins followed by LPS stimulation and measured after 23 hrs by MSD analysis; type: functional, cell-based
# [16] = Upregulation of IL-10 level in mouse whole blood cell preincubated for 30 mins followed by LPS stimulation and measured after 23 hrs by MSD analysis; type: functional, cell-based
# Mus musculus [17] = test: Anti-inflammatory activity in LPS-induced male CD-1 mouse acute inflammatory model assessed as effect on IL-10 level at 50 mg/kg, sc preincubated for 15 mins followed by LPS stimulation and measured after 3.5 hrs; type: functional, organism-based; conditions: time 225.0 min
# Mus musculus [18] = test: Anti-inflammatory activity in LPS-induced male CD-1 mouse acute inflammatory model assessed as peak IL-10 level at 1 mg/kg, sc preincubated for 15 mins followed by LPS stimulation and measured after 2 hrs relative to control; type: functional; conditions: time 135 min, 2.25 h
# Mus musculus [19] = test: Anti-inflammatory activity in LPS-induced male CD-1 mouse acute inflammatory model assessed as peak IL-10 level at 10 mg/kg, sc preincubated for 15 mins followed by LPS stimulation and measured after 2 hrs relative to control; type: functional; conditions: time 135 min, 2.25 h
# Mus musculus [20] = test: Anti-inflammatory activity in LPS-induced male CD-1 mouse acute inflammatory model assessed as peak IL-10 level at 50 mg/kg, sc preincubated for 15 mins followed by LPS stimulation and measured after 2 hrs relative to control; type: functional; conditions: time 135 min, 2.25 h
# [21] = Metabolic stability in human hepatocytes assessed as intrinsic clearance by LC-MS/MS analysis; type: ADME, cell-based, Hepatocyte; conditions: read-out: CLH
# Serine/threonine-protein kinase SIK2 (Homo sapiens), sequence (Q9H0K1 whole entry, looked up): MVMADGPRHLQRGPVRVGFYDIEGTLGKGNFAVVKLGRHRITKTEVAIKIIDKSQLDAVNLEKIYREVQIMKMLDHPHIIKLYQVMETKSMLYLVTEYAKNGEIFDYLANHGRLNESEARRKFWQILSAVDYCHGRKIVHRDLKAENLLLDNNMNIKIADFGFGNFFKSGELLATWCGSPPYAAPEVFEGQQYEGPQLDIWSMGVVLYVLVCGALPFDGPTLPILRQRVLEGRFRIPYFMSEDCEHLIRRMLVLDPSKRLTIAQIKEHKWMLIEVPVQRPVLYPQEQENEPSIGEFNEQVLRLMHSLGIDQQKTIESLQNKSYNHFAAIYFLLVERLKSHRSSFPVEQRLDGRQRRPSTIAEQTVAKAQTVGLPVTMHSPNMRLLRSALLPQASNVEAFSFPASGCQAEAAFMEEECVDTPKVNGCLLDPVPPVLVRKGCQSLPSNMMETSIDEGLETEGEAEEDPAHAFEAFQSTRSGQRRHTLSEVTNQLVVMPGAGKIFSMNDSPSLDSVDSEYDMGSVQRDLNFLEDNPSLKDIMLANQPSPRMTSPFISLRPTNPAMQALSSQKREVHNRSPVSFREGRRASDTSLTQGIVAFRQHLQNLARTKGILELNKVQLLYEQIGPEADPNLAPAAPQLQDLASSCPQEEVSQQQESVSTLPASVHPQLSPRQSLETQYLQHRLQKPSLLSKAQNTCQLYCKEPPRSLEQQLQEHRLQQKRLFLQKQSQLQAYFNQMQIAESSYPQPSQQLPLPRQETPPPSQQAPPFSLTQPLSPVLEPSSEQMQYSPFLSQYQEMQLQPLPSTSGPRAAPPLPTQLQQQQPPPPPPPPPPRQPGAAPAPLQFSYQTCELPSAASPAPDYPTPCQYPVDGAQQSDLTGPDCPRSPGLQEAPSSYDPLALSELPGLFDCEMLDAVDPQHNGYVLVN
# Cyclin-dependent kinase 6 (Homo sapiens), sequence (Q00534 whole entry): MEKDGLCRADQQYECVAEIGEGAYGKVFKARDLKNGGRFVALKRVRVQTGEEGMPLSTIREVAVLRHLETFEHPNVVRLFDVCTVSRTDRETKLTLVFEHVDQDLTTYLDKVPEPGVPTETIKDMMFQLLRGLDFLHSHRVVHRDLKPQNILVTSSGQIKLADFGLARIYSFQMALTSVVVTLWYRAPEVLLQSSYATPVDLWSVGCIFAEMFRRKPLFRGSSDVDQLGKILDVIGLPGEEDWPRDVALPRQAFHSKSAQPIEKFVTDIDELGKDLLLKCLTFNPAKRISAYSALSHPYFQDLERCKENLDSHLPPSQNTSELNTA
# Serine/threonine-protein kinase SIK1 (Homo sapiens), sequence (P57059 whole entry): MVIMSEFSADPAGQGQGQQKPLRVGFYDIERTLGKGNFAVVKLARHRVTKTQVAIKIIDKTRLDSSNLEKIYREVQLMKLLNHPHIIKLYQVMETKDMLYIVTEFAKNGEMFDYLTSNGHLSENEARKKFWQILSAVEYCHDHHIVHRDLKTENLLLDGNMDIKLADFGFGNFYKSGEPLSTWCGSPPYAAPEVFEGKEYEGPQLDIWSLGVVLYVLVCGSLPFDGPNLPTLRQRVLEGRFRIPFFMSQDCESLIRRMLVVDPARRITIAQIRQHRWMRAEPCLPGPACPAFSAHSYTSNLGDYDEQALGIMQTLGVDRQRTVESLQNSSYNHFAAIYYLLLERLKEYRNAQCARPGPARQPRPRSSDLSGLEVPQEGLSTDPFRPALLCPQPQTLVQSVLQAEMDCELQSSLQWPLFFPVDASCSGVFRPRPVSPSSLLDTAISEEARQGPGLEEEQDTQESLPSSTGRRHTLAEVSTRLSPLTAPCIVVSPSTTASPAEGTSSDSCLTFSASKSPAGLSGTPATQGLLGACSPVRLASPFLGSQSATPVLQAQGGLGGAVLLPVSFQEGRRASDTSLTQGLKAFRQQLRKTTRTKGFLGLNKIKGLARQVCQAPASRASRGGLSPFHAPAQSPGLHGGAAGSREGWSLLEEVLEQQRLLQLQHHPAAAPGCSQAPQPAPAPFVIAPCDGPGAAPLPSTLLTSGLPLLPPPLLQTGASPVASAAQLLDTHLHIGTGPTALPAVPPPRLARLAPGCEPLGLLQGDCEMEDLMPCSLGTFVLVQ
# Serine/threonine-protein kinase SIK3 (Homo sapiens), sequence (Q9Y2K2 whole entry, looked up): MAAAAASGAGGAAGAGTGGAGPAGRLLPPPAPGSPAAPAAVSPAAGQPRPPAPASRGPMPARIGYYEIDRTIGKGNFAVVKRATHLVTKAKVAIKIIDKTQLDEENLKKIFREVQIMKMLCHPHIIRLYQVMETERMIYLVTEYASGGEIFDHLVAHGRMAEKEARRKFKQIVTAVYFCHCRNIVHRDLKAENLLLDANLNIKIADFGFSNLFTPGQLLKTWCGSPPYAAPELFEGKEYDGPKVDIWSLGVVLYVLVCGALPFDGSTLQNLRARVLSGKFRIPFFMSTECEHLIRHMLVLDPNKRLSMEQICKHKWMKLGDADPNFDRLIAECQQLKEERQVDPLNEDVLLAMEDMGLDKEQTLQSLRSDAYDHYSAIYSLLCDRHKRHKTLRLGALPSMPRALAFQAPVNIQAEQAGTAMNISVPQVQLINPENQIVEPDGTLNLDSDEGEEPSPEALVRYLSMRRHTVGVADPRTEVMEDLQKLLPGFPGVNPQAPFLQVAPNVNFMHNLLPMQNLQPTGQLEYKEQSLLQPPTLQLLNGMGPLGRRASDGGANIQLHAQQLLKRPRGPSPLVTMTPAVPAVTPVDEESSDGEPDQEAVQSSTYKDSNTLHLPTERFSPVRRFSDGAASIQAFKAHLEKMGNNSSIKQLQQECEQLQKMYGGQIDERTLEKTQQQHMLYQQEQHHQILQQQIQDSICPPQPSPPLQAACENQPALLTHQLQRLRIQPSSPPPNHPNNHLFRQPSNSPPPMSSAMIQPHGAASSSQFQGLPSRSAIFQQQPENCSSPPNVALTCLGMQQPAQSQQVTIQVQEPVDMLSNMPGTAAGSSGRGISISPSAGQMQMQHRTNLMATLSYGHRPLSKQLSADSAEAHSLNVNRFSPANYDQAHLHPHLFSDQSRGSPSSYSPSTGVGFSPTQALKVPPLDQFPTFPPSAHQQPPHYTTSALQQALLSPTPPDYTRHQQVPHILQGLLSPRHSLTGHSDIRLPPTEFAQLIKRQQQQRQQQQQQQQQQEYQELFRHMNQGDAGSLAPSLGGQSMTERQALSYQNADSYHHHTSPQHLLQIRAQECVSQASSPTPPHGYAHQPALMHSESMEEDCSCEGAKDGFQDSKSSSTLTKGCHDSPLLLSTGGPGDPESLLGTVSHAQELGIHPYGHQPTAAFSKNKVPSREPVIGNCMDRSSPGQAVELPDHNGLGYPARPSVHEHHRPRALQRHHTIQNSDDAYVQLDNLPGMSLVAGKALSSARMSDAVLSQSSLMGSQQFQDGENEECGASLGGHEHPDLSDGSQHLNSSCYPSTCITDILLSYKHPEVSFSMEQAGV
# Cyclin-dependent kinase 5 (Homo sapiens), sequence (Q00535 whole entry, looked up): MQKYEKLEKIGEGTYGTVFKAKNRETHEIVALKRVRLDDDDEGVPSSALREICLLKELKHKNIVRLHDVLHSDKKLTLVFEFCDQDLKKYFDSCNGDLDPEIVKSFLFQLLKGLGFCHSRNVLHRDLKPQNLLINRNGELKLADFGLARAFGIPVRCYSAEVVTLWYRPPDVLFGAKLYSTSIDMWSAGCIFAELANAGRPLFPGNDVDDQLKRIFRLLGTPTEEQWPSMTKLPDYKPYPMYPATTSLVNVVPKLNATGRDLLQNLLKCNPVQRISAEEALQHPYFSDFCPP
# Cyclin-dependent kinase 9 (Homo sapiens), sequence (P50750 whole entry): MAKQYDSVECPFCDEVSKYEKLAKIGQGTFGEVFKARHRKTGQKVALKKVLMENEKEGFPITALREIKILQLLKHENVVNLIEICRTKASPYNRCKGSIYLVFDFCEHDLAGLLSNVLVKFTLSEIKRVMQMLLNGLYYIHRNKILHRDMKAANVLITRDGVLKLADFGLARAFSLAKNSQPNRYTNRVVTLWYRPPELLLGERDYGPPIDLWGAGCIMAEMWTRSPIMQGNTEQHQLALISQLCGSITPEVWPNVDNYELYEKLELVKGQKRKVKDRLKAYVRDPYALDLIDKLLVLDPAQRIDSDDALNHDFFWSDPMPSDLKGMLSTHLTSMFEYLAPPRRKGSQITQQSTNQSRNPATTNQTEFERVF
# Cyclin-dependent kinase 10 (Homo sapiens), sequence (Q15131 whole entry): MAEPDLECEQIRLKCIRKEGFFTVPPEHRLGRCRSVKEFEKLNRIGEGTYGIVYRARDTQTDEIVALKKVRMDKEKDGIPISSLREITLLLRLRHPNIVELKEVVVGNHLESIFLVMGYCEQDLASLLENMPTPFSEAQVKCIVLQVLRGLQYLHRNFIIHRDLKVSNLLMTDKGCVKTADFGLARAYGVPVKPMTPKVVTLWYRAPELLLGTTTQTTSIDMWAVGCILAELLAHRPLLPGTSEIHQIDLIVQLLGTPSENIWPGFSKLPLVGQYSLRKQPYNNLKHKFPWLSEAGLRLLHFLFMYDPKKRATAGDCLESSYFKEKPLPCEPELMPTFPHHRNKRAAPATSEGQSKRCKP
# Cyclin-dependent kinase 7 (Homo sapiens), sequence (P50613 whole entry): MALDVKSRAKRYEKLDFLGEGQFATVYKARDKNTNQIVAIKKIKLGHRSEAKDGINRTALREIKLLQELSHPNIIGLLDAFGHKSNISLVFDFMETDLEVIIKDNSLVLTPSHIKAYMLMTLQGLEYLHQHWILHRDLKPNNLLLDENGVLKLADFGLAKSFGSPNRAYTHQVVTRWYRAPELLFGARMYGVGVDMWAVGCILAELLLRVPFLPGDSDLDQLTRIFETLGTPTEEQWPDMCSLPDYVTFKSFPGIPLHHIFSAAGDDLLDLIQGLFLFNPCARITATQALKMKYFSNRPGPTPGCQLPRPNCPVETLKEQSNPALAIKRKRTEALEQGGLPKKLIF
Compound,EC50 [1] [nM],other results
N#Cc1ccc(C(=O)N2CCOC(c3ccnc(N4CCCC4)n3)C2)[nH]1 (racemic),> 25000,–
CC(C)COc1nccc(C2CCCN(C(=O)c3c[nH]c(C#N)c3)C2)n1 (racemic),> 25000,–
N#Cc1c[nH]c(C(=O)N2CCOC(c3ccnc(N4CCCC4)n3)C2)c1 (racemic),275,Activity [2]: inactive; Activity [3]: inactive; Activity [4]: inactive; Activity [5]: inactive; Activity [6]: inactive; Activity [7]: inactive; Activity [8]: inactive; Activity [9]: inactive; Activity [10]: inactive; Activity [11]: inactive; Activity [12]: inactive
Cc1[nH]c(C#N)cc1C(=O)N1CCOC(c2ccnc(N3CCCC3)n2)C1 (racemic),490,–
N#Cc1cc(C(=O)N2CCCC(c3ccnc(-n4cccn4)n3)C2)c[nH]1 (racemic),9120,–
N#Cc1cc(C(=O)N2CCOC(c3ccnc(N4CCCC4)n3)C2)co1 (racemic),> 25000,–
C[C@@H]1CC[C@H](c2ccnc(N3CCCC3)n2)CN1C(=O)c1c[nH]c(C#N)c1,33,–
N#Cc1coc(C(=O)N2CCOC(c3ccnc(N4CCCC4)n3)C2)c1 (racemic),> 25000,–
CO[C@@H]1C[C@H](c2ccnc(N3CC[C@@H](F)C3)n2)CN(C(=O)c2c[nH]c(C#N)c2)C1,46,EC50 [14]: > 25000 nM; EC50 [15]: 50 nM; EC50 [16]: 63 nM; Activity (Mus musculus [17]): Active; Activity (Mus musculus [18]): 150%; Activity (Mus musculus [19]): 176%; Activity (Mus musculus [20]): 500%
CO[C@H]1C[C@@H](c2ccnc(N3CC[C@@H](F)C3)n2)CN(C(=O)c2c[nH]c(C#N)c2)C1,2400,–
CCc1nccc(C2CCCN(C(=O)c3c[nH]c(C#N)c3)C2)n1 (racemic),> 25000,–
CCN(CC)c1nccc(C2CCCN(C(=O)c3c[nH]c(C#N)c3)C2)n1 (racemic),> 25000,–
N#Cc1cc(C(=O)N2CCOC(c3ccnc(N4CCCC4)n3)C2)n[nH]1 (racemic),> 25000,–
N#Cc1c[nH]c(C(=O)N2CCO[C@H](c3ccnc(N4CCCC4)n3)C2)c1,5890,Activity [2]: inactive; Activity [3]: inactive; Activity [4]: inactive; Activity [5]: inactive; Activity [6]: inactive; Activity [7]: inactive; Activity [8]: inactive; Activity [9]: inactive; Activity [10]: inactive; Activity [11]: inactive; Activity [12]: inactive
N#Cc1ncc(C(=O)N2CCOC(c3ccnc(N4CCCC4)n3)C2)s1 (racemic),> 25000,–
NC(=O)c1c[nH]c(C(=O)N2CCOC(c3ccnc(N4CCCC4)n3)C2)c1 (racemic),> 25000,–
Cn1cc(C(=O)N2CCOC(c3ccnc(N4CCCC4)n3)C2)cc1C#N (racemic),> 25000,–

# The next lines start with results.
EC50 [1] [nM],Compound,other results
355,Cc1[nH]c(C#N)cc1C(=O)N1CCCC(c2ccnc(N3CCCC3)n2)C1 (racemic),–
> 25000,N#Cc1cc(C(=O)N2CCCC(c3cc(N4CCCC4)ncn3)C2)c[nH]1 (racemic),–
2000,N#Cc1cc(C(=O)N2CCCC(c3ccnc(N4CCCCC4)n3)C2)c[nH]1 (racemic),–
676,N#Cc1cc(C(=O)N2CCCC(F)(c3ccnc(N4CCCC4)n3)C2)c[nH]1 (racemic),–
955,N#Cc1cc(C(=O)N2CCC[C@H](c3ccnc(N4CCC(F)(F)C4)n3)C2)c[nH]1,–
> 25000,Cc1cc(C2CCCN(C(=O)c3c[nH]c(C#N)c3)C2)nc(N2CCCC2)n1 (racemic),–
275,N#Cc1cc(C(=O)N2CCC[C@H](c3ccnc(N4CCCC4)n3)C2)c[nH]1,EC50 [13]: 275 nM
263,N#Cc1cc(C(=O)N2C[C@@H](c3ccnc(N4CCCC4)n3)CC(F)(F)C2)c[nH]1,–
275,N#Cc1cc(C(=O)N2CCC[C@@H](c3ccnc(N4CCCC4)n3)C2)c[nH]1,EC50 [13]: 6300 nM
955,N#Cc1cc(C(=O)N2CCC[C@H](c3ccnc(N4CC[C@H](F)C4)n3)C2)c[nH]1,–
1050,N#Cc1cc(C(=O)N2CCO[C@H](c3ccnc(N4CCCC4)n3)C2)c[nH]1,–
339,C[C@H]1CCCN1c1nccc([C@H]2CCCN(C(=O)c3c[nH]c(C#N)c3)C2)n1,–
437,C[C@@H]1CCN(C(=O)c2c[nH]c(C#N)c2)C[C@H]1c1ccnc(N2CCCC2)n1,–
178,N#Cc1cc(C(=O)N2CCC[C@H](c3ccnc(N4CC[C@@H](F)C4)n3)C2)c[nH]1,–
102,CO[C@@H]1C[C@H](c2ccnc(N3CCCC3)n2)CN(C(=O)c2c[nH]c(C#N)c2)C1,–
> 25000,N#Cc1cc(C(=O)N2CCCC(c3ncnc(N4CCCC4)n3)C2)c[nH]1 (racemic),–
251,C[C@@H]1C[C@H](c2ccnc(N3CCCC3)n2)CN(C(=O)c2c[nH]c(C#N)c2)C1,CLint scaled [21]: 90 mL/min/kg
